For 1 molecule, Kd results are on record in patent US20100094026A1, “METHOD OF SCREENING COMPOUND USEFUL IN TREATING ALLERGIC DISEASE” (REVERSE PROTEOMICS RESEARCH INSTITUTE CO., LTD., priority 2005, published 2010).

The term Kd denotes the free concentration of one partner at which half of the binding sites on the other are occupied at equilibrium, for simple one-to-one binding. Higher therefore signals weaker binding.

Counter-ions that a name gives are not always drawn.

This assay concerns the target T1, Standard Human Vimentin (Homo sapiens, UniProt P08670).
T1 construct: purchased PROGEN Biotechnik 62015
Put plainly: Measurement of Kd value between Vimentin and Intal with Biacore (SPR). The format is binding. To be noted: SPR on Biacore3000; Intal PEG amine immobilized on CM5 chip; Vimentin 0.29 nM to 4.6 μM infused for 5 min. How it is done:
Intal PEG amine synthesized as above was immobilized to Biacore CM5 chip (#BR-1000-14), according to a method described in BIAapplications Handbook (published by Biacore).
Control data was obtained by using a chip to which 2-ethanolamine was immobilized by the same way.
As Vimentin, Standard Human Vimentin (cat. No. 62015) purchased from PROGEN Biotechnik was subjected to buffer exchange by Running buffer(0.25 M Sucrose, 25 mM Tris-HCl pH7.5, 0.3 mM sodium N,N-diethyldithiocarbamate, 25 mM urea, 1 mM calcium chloride) and used to measure Kd.
The measurement of Kd was performed by SPR (surface plasmon resonance) spectrum measurement on Biacore3000 (Biacore). The above-mentioned Running buffer was run through the Intal-immobilized CM5 chip prepared by the above-mentioned procedure at 20 μl per min. Thereto, each sample which was prepared by gradually diluting the Vimentin prepared by the above-mentioned procedure (0.29 nM to 4.6 μM) was infused for 5 min., and the obtained SPR spectrum was analyzed by BIAevaluation software Ver.
For orientation: In SPR one partner is held on a chip, and binding of the other changes the refractive index at the surface.

T1 sequence (P08670 whole entry): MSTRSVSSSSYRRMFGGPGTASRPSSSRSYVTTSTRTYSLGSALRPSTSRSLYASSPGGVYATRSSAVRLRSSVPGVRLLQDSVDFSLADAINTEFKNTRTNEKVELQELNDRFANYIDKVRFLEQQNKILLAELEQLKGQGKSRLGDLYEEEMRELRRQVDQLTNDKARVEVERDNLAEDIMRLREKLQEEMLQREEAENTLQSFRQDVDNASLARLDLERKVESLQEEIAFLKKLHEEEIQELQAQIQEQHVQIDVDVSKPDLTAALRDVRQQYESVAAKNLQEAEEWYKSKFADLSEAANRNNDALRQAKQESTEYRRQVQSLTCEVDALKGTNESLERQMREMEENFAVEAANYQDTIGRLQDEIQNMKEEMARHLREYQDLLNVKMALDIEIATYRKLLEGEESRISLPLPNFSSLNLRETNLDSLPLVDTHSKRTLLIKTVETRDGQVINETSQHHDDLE

As for `O=C(O)c1cc(=O)c2c(OCC(O)COc3cccc4oc(C(=O)O)cc(=O)c34)cccc2o1` [Intal, disodium salt of 1,3-bis(2-carboxychromon-5-yloxy)-2-hydroxypropane], the Kd is 56 nM.
